# Results from patent US12252472B1, “Barbituric acid derivatives, their preparation and use thereof as leukocyte transmigration inhibitors and for treating inflammatory diseases, autoimmune diseases and cancer” (BAR-ILAN UNIVERSITY, priority 2017, dated 2025).
# Legend:
# [1] = test system: mouse monocytes / macrophages from the abdominal cavity; test: Ten-color flow cytometry (CD115, F4/80) of peritoneal cells from the peritonitis model; assay type: in vivo
# Description: After inducing the inflammation (peritonitis), compound of Formula 2 was injected at a concentration of 12.5 mg/kg (DMSO, 01% in PBS, IP), twice (one day after the other). The next day, mice were sacrificed and the peritoneal liquid was collected from the control and treated mice (n=3 for each group). Two assays were conducted for the estimation of the possible anti-inflammatory effect of compound of Formula 2: leukocyte counting (the total amount and the calculation of the percentage of different leukocyte fractions) and a flow cytometry.
# Flow cytometry based on a fluorescent protein marker (CD115) was selected for the analysis. It is generated by monocytes and localized to their plasma membrane as described by Yang, J. et al. (Monocyte and macrophage differentiation: circulation inflammatory monocyte as biomarker for inflammatory diseases. Biomark Res, 2014. 2(1): p. 1). This protein is able to specifically recognize and bind a F4/80 antibody that activates the immune system macrophages (Lin, H. H., et al., The macrophage F4/80 receptor is required for the induction of antigen-specific efferent regulatory T cells in peripheral tolerance. Journal of Experimental Medicine, 2005. 201(10): p. 1615-1625).
# Cell viability before the FACS experiment was assessed by incubation in the amine-reactive dye Aqua (Invitrogen) (1:500) dilution in Ca^2+ and Mg^2+-free PBS) for 30 minutes in the dark at room temperature (RT), followed by a single wash in PBS. For all experiments, cells were incubated in 0.5 μg Fc Block (BD Biosciences) for 10 minutes at room temperature (RT). Surface staining was performed in the dark for 30 minutes at 4° C. in staining buffer. A surface marker (CD115, APC clone AFS98, in dilution 1:100, from eBioscience) was used. […] Fluorescence minus one (FMO) controls were used for gating analyses to distinguish positively from negatively staining cell populations. […] Compensation matrices were calculated and applied using FlowJo software (Tree Star). […]
# [2] = test system: B cells; test: B-lymphocyte adhesion and transmigration, MesenFlow assay; assay type: cell-based; settings: 30 μM
# Description: Flow assays were conducted as described in a previous study (Bradfield, P. F., et al., JAM-C regulates unidirectional monocyte transendothelial migration in inflammation. Blood, 2007. 110(7): p. 2545-55). HUVECs were cultured at 1×10^5 cells/slide on Ibidi 6-chamber slides (80606; Ibidi) before treatment with TNFα (500 U/mL) for 6-10 hours. An individual chamber outlet was then attached to a calibrated pump (74 900; Cole Partner, Vernon Hills, IL) and flow was generated by perfusing wash buffer (M199 with 0.15% BSA) or a monocyte suspension (2.5×10^6 cells/mL) over the HUVEC monolayer. The flow rate was representative of shear rates in small venules (0.05 Pa). Observations made using phase-contrast microscopy (Model: Axiovert 100; Objective: 20×/0.3 NA air; Carl Zeiss) were recorded using a high-resolution camera (D70; Nikon, Zurich, Switzerland). Individual images were recorded every 30 seconds with Nikon capture software (v4.2) and compiled into movie sequences using Adobe Photoshop (CS6) and Image J (v1.5d), allowing analysis of individual monocytes over large areas. The tested compounds, e.g. compounds of the general Formula (I), were maintained at the specified concentration in all wash buffers throughout the course of the experiment. The compounds were preincubated separately on both HUVECs and monocytes 15 minutes prior to flow co-culture. […]
# [3] = abdominal cavity, treated vs non-treated mice, FACS
smiles,measurement,setting,value
"COC(=O)c1ccc(COc2c(C=C3C(=O)NC(=O)NC3=O)cccc2C(C)(C)C)cc1 [Formula 2, methyl 4-((2-(tert-butyl)-6-((2,4,6-trioxotetrahydropyrimidin-5(2H)-ylidene)methyl)phenoxy)methyl) benzoate]","monocyte phenotype, CD115 expression (shift in pattern of gates 1-4)",[1]; C57BL/6 mouse monocytes,reduced differentiation
same,amount of activated (high macrophages),[1]; [3],considerably decreased
same,level of non-activated (low macrophage),[1]; [3],elevated
same,B cell adhesion and transmigration,[2],dramatic blocking effect
